# Experimental data from ChEMBL document CHEMBL1146815, “Novel dual inhibitors of calpain and lipid peroxidation” (Bioorg Med Chem Lett, 2004).
# Assays:
# Rattus norvegicus = species on record: Rattus norvegicus; assay: Ability to inhibit [Fe2+] induced lipid peroxidation (LPO) in rat brain microsomes; assay type: functional
# [1] = molecular target: T1, Calpain-1 catalytic subunit (Homo sapiens, UniProt P07384); assay: Inhibitory activity against on human calpain 1
# T1 sequence (P07384 whole entry): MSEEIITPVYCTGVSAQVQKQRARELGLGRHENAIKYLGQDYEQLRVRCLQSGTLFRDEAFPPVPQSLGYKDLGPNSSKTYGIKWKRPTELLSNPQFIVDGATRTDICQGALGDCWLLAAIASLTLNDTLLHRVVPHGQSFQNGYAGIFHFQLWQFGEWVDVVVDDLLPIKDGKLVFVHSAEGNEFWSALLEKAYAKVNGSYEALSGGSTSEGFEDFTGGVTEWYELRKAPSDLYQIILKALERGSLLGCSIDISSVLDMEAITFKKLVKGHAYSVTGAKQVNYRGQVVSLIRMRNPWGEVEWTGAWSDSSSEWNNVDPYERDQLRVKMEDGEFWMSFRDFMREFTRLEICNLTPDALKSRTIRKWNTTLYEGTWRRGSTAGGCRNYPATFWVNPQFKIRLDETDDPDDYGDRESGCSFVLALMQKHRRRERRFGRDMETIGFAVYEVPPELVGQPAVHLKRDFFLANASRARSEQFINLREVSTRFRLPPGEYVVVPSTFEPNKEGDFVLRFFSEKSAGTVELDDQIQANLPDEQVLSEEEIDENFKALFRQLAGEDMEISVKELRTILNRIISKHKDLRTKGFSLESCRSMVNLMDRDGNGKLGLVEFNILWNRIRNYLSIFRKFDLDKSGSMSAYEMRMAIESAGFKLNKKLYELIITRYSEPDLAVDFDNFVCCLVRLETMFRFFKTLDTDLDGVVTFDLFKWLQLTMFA
# C6 [2] = assay: Protection against C6 glial cell death induced by maitotoxin; assay type: functional, cell-based; details: Rattus norvegicus
# [3] = molecular target: T1, Calpain-1 catalytic subunit; assay: Inhibitory activity against on calpain in C6 glial cells; Not active; assay type: functional, cell-based, Rattus norvegicus
# [4] = molecular target: T1, Calpain-1 catalytic subunit; assay: Inhibitory activity against on human calpain 1; Not active
# C6 [5] = assay: Protection against C6 glial cell death induced by maitotoxin at 100 uM concentration; assay type: functional; details: Rattus norvegicus
SMILES,IC50 (Rattus norvegicus) [nM],IC50 [1] [nM],IC50 (C6 [2]) [nM],IC50 [3],IC50 [4],inhibition at 100 µM (C6 [5]) [%]
Cc1c(C)c2c(c(C)c1O)CCC(C)(C(=O)N[C@@H](CC(C)C)C(=O)N[C@H]1CCOC1O)O2 (some centres not stated),1700,147,,,,
CC(C)C[C@H](NC(=O)c1cccc2c1Nc1ccccc1S2)C(=O)N[C@H]1CCOC1O (some centres not stated),3600,82,,,,
CC(=O)OC1OCC[C@@H]1NC(=O)[C@H](CC(C)C)NC(=O)c1ccc2c(c1)Nc1ccccc1S2 (some centres not stated),,,15500,,,
CC(C)C[C@H](NC(=O)c1ccc2c(c1)Nc1ccccc1S2)C(=O)N[C@H]1CCOC1O (some centres not stated),70,22.5,38500,,,
Cc1cc(C(C)(C)C)c(O)c(C(C)(C)C)c1 [BUTYLATED HYDROXYTOLUENE],3250,,,Not Active,Not Active,21
